Data on 1 compound can be found in patent US11911356B2, “Regulation of mutant TERT by BRAF V600E/map kinase pathway through FOS/GABP in human cancer” (THE JOHNS HOPKINS UNIVERSITY, priority 2017, dated 2024).

One experiment has as its system ERK phosphorylation. The experiment is described as follows: Western blotting of phosphorylated ERK in inhibitor-treated cells. To be noted: cells harboring wild-type BRAF; 0.2 uM AZD6244, 24 hours. Type of experiment: cell-based, human. The protocol: FIG. 2A-2G. BRAF V600E/MAPK pathway regulated TERT expression. (FIG. 2A) TERT expression was analyzed by qRT-PCR in cells treated with 0.5 uM PLX4032 or 0.2 uM AZD6244 for 24 hours (upper panel). The corresponding levels of phosphorylated ERK (p-ERK), total ERK (t-ERK), and beta-actin were detected by Western blotting (lower panel). The relative TERT mRNA expression levels were normalized to the DMSO control group. (FIG. 2B) Luciferase reporting assay of TERT promoter activities in K1 cells treated with DMSO or PLX4032 (0.5 uM). (FIG. 2C, 2D) Specific shRNA against BRAF were used to knock down BRAF in thyroid cancer cell lines BCPAP and K1 and melanoma cell line A375. Scramble shRNA was used as control. Cells were then subjected to Western blotting (FIG. 2C) and qRT-PCR (FIG. 2D). (FIG. 2E) Sequencing of the BRAF exon-15 in the parental and heterozygous BRAF-V600E knock-in SW48 cells. BRAF V600E was knocked in on one allele of BRAF by rAAV technology through homologous recombination and Cre recombinase of the Neo cassette. (FIG. 2F) Western blotting analyses of phosphorylation of ERK (p-ERK), total ERK (t-ERK), BRAF, and beta-actin in the parental and BRAF-V600E knock-in SW48 cells. (FIG. 2G) TERT promoter luciferase reporter assay in SW48 cells with/without BRAF V600E knock-in. **P<0.01, ***P<0.001, by 2-tailed Student's t test. P values are for the comparison of the indicated condition with DMSO (FIG. 2B), scramble (FIG. 2D), or BRAF-WT groups (FIG. 2G). All the values represent the average standard deviation (SD) of triplicate samples from a typical experiment. All the experiments were performed three times with similar results. […]
Cells were lysed in the RIPA buffer (#sc-24948; Santa Cruz Biotechnology, Santa Cruz, CA) with protease inhibitor cocktail (#P8340; Sigma-Aldrich) and phosphatase inhibitor cocktail (#P0044; Sigma-Aldrich) and Western blotting analysis was performed as we previously described^54. […] Signals were detected by SuperSignal™ West Pico PLUS Chemiluminescent Substrate (#34579; Thermo Fisher Scientific). […]
(In general: Immunoblotting shows a protein as a band on a membrane.)

The test system of a further experiment is TERT expression. The experiment in a line: TERT expression by qRT-PCR in human cancer cell lines treated with inhibitors. The experiment is classed as cell-based. To be noted: 0.2 uM AZD6244, 24 hours. The protocol:
FIG. 2A-2G. BRAF V600E/MAPK pathway regulated TERT expression. (FIG. 2A) TERT expression was analyzed by qRT-PCR in cells treated with 0.5 uM PLX4032 or 0.2 uM AZD6244 for 24 hours (upper panel). The corresponding levels of phosphorylated ERK (p-ERK), total ERK (t-ERK), and beta-actin were detected by Western blotting (lower panel). The relative TERT mRNA expression levels were normalized to the DMSO control group. (FIG. 2B) Luciferase reporting assay of TERT promoter activities in K1 cells treated with DMSO or PLX4032 (0.5 uM). (FIG. 2C, 2D) Specific shRNA against BRAF were used to knock down BRAF in thyroid cancer cell lines BCPAP and K1 and melanoma cell line A375. Scramble shRNA was used as control. Cells were then subjected to Western blotting (FIG. 2C) and qRT-PCR (FIG. 2D). (FIG. 2E) Sequencing of the BRAF exon-15 in the parental and heterozygous BRAF-V600E knock-in SW48 cells. BRAF V600E was knocked in on one allele of BRAF by rAAV technology through homologous recombination and Cre recombinase of the Neo cassette. (FIG. 2F) Western blotting analyses of phosphorylation of ERK (p-ERK), total ERK (t-ERK), BRAF, and beta-actin in the parental and BRAF-V600E knock-in SW48 cells. (FIG. 2G) TERT promoter luciferase reporter assay in SW48 cells with/without BRAF V600E knock-in. **P<0.01, ***P<0.001, by 2-tailed Student's t test. P values are for the comparison of the indicated condition with DMSO (FIG. 2B), scramble (FIG. 2D), or BRAF-WT groups (FIG. 2G). All the values represent the average standard deviation (SD) of triplicate samples from a typical experiment. All the experiments were performed three times with similar results.
FIG. 3A-3C. MYC regulated TERT expression in a TERT promoter mutation-independent manner. (FIG. 3A) The four indicated cancer cell lines harboring BRAF V600E mutation were treated with 0.5 uM PLX4032 and/or 10 nM MYC-specific siRNA (siMYC) for 24 hours, which were then subjected to Western blotting (upper panel) and qRT-PCR (lower panel). The relative TERT mRNA expression was normalized to the control group. (FIG. 3B, 3C) Parental and BRAF V600E knock-in SW48 cells were treated with control siRNA (siControl) or MYC-specific siRNA (siMYC, 10 nM) for 48 h, followed by Western blotting (FIG. 3B) and luciferase reporter assays (FIG. 3C). *P<0.05, **P<0.01, ***P<0.001, by 2-tailed Student's t test. n.s., not significant. All the values represent the average standard deviation (SD) of triplicate samples from a typical experiment. Similar results were obtained in two additional independent experiments.
FIG. 9A-9B. Summarized effects of PLX4032 (FIG. 9A) and AZD6244 (FIG. 9B) on TERT mRNA expression. Each bar represents the average+SD of the cells with the same genotypes as follows: BRAF-mut and TERT-mut cell lines: BCPAP, K1, OCUT1, A375, and M14; BRAF-mut and TERT-wt cell lines: SK-MEL-1, SK-MEL-3, and RKO; BRAF-wt and TERT-mut cell lines: TPC1, KAT18, C643, CHL-1, SK-MEL-2, and Mewo; BRAF-wt and TERT-wt cell lines: FB1, WRO, and HTORI3. Compared with the corresponding control of DMSO, **P<0.01, ***P<0.001, by independent t-test.
The BRAF V600E-specific inhibitor PLX4032 (#S1267) and the MEK1 inhibitor AZD6244 (#S1008) were purchased from Selleck Chemicals (Houston, TX), dissolved in DMSO with a stock concentration of 10 mM and stored at −20° C. PLX4032 and AZD6244 were used to treat cells for 24 hours at 0.5 μM and 0.2 μM, respectively, where indicated in the manuscript. DMSO was used as the vehicle control.
Total RNA was extracted from cultured cells using the TRIzol reagent (#15596-018; Ambion, Life Technologies, Carlsbad, CA) and reverse-transcribed to cDNA using the SuperScript III First-Strand Synthesis System (#18080-051; Invitrogen, Life Technologies, Carlsbad, CA). Gene expression was analyzed in triplicate using FastStart Universal SYBR Green Master with ROX (#04913850001; Roche Applied Science, Indianapolis, IN) on the Applied Biosystems 7900HT Fast Real-Time PCR System. […]
On the technique in general: In qPCR the cycle at which signal appears reflects the starting amount.

For `Cn1cnc2c(F)c(Nc3ccc(Br)cc3Cl)c(C(=O)NOCCO)cc21` [AZD6244], the ERK phosphorylation result in the experiment with ERK phosphorylation is “modest inhibitory effect”. Further, the TERT expression entry is recorded as “similarly inhibited TERT expression” with TERT expression (cells harboring BRAF V600E mutation) and “inhibited TERT expression more in those harboring TERT promoter mutations” in the experiment on TERT expression (cells harboring wild-type BRAF, TERT promoter mutant versus wild-type).
